# Experimental data reported in patent US5108754A, “Orthomolecular method of treating sickle cell disease” (priority 1991, dated 1992).
# “And” between values parts separate entries of the source, which are not always exact repeats. Equal entries are not always repeated.
# What was measured:
# [1] = prior-art antisickling agent; cited from earlier work
# [2] = system: rats
# Description: The compound prepared according to Example 1 was subjected to a toxicity study in accordance with techniques well-known in the art. The study was conducted on rats over a three-day testing period.
# [3] = second day, 0.01% dosage, individual rats #A-#D, listed as active agent
Structure (SMILES),toxicity [1],"rats killed after administration of the drug formulation ([2]; rats, three days, 0.001%, 0.01%, 0.1% of rat weight on days 1, 2, 3)","toxicity ([2]; rats, three-day study, 0.001%, 0.01%, 0.1% of rat weight)","Body Fluid Concentraton 0.01% [2, 3]","Weight After [2, 3]","Weight Before [2, 3]","Weight Change [2, 3]"
N#CO [potassium cyanate],rather high toxicity,,,,,,
"Cc1c(C)c2c(c(C)c1OC(=O)C(N)CC[S+](C)CC1OC(n3cnc4c(N)ncnc43)C(O)C1O)CCC(C)(CCCC(C)CCCC(C)CCCC(C)C)O2.[I-] (stereo not drawn) [Example 1, α-(S-adenosylmethionine)-O-tocopherol]",,none of the rats tested were killed,substantially non-toxic,0.14 and 0.07,28.5 grams and 26.4 grams and 29.5 grams,28.3 grams and 26.3 grams and 29.4 grams,0.2 grams and 0.1 grams
